Assay: Solubility in water at 25° C. of specific SFAEs
Assay type: physicochemical
Conditions: water insoluble = does not dissolve in water at 25° C.

Solubility in Water at 25° C.	Substance
soluble	trehalose monolaurate
Insoluble	trehalose dilaurate
Insoluble	trehalose dipalmitate

More lines, now with the values behind:

Substance	Solubility in Water at 25° C.
raffinose monolaurate	soluble
trehalose dimyristate	Insoluble
raffinose monostearate	soluble
trehalose monopalmitate	Insoluble
trehalose distearate	Insoluble
trehalose monomyristate	Insoluble
trehalose monostearate	Insoluble

From US20230265614A1, “WATER INSOLUBLE, HIGH MELTING POINT SACCHARIDE FATTY ACID ESTERS (SFAE)” (GREENTECH GLOBAL PTE. LTD., priority 2021, published 2023)
